The values that follow come from ChEMBL document CHEMBL1148561, “Design, synthesis, and biological evaluation of the N-diarylalkenyl-piperidinecarboxylic acid derivatives as GABA uptake inhibitors (I)” (Bioorg Med Chem Lett, 2006).

Chain of Sodium- and chloride-dependent GABA transporter 1 (P30531 whole entry): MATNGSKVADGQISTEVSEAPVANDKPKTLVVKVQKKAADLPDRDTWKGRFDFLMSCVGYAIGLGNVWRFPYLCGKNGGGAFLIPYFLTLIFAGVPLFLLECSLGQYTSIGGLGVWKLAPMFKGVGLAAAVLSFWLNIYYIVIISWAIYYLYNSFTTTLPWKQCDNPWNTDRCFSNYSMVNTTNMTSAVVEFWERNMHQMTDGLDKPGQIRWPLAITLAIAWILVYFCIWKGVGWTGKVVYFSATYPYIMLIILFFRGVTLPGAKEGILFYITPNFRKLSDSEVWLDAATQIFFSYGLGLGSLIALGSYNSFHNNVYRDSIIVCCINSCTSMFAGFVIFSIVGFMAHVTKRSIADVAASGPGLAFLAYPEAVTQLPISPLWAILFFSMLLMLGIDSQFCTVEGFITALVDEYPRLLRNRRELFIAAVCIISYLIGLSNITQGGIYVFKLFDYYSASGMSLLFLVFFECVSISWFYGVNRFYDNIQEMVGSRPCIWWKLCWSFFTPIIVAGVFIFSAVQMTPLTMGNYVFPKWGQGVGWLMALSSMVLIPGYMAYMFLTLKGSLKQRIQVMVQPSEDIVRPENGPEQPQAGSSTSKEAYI

The experiment has as its target Sodium- and chloride-dependent GABA transporter 1 (Homo sapiens, UniProt P30531). Nature of the experiment: Inhibition of GAT1 transport activity.
As a reminder, the IC50 is the concentration that inhibits the measured activity by half. Low readings indicate greater potency in that assay, high ones weaker potency in that assay. `O=C(O)[C@@H]1CCCN(CCC=C(c2sccc2COCc2ccccc2)c2sccc2COCc2ccccc2)C1` displayed a half-inhibitory concentration (IC50) of 840 nM. In turn, `CC(C)OCc1ccsc1C(=CCCN1CCCCC1C(=O)O)c1sccc1COC(C)C` (stereo not given) returned an IC50 of over 100000 nM.

Compound `COCc1ccsc1C(=CCCN1CCC[C@@H](C(=O)O)C1)c1sccc1COC` came in with an IC50 of 2800 nM.

`O=C(O)[C@@H]1CCCN(CCC=C(c2sccc2COC2CCCCC2)c2sccc2COC2CCCCC2)C1` registered a 50% inhibitory concentration (IC50) of 680 nM. In the case of `Cc1ccsc1C(=CCCN1CCC(C(=O)O)CC1)c1sccc1C` it was over 100000 nM; in that of `O=C(O)C1CCN(CCC=C(c2sccc2COC2CCCCC2)c2sccc2COC2CCCCC2)CC1`, 1240 nM; in that of `COCc1ccsc1C(=CCCN1CCC(C(=O)O)CC1)c1sccc1COC`, over 100000 nM.

For `O=C(O)C1CCN(CCC=C(c2sccc2COc2cccc3ccccc23)c2sccc2COc2cccc3ccccc23)CC1`, the IC50 is over 100000 nM. `O=C(O)[C@@H]1CCCN(CCC=C(c2sccc2COc2cccc3ccccc23)c2sccc2COc2cccc3ccccc23)C1` returned an IC50 of 66300 nM. `CC(C)OCc1ccsc1C(=CCCN1CCC[C@@H](C(=O)O)C1)c1sccc1COC(C)C` had an IC50 of 7100 nM.

As for `CC(C)OCc1ccsc1C(=CCCN1CCC(C(=O)O)CC1)c1sccc1COC(C)C`, the IC50 was over 100000 nM.

`Cc1ccsc1C(=CCCN1CCCCC1C(=O)O)c1sccc1C` (stereo not given) registered an IC50 of 1360 nM. The value for `O=C(O)C1CCCCN1CCC=C(c1sccc1COCc1ccccc1)c1sccc1COCc1ccccc1` (stereo not given) was 27600 nM; that for `O=C(O)C1CCN(CCC=C(c2sccc2COCc2ccccc2)c2sccc2COCc2ccccc2)CC1` was 4340 nM.

`O=C(O)[C@@H]1CCCN(CCC=C(c2sccc2COc2ccccc2)c2sccc2COc2ccccc2)C1` showed an IC50 of 340 nM.

With `COCc1ccsc1C(=CCCN1CCCCC1C(=O)O)c1sccc1COC` (stereo not given), the IC50 worked out at 12300 nM. In the case of `O=C(O)C1CCCCN1CCC=C(c1sccc1COC1CCCCC1)c1sccc1COC1CCCCC1` (stereo not given), the IC50 came to 940 nM.

For the compound `O=C(O)C1CCCCN1CCC=C(c1sccc1COc1cccc2ccccc12)c1sccc1COc1cccc2ccccc12` (stereo not given), the IC50 was over 100000 nM. The value for `O=C(O)C1CCN(CCC=C(c2sccc2COc2ccccc2)c2sccc2COc2ccccc2)CC1` was 1500 nM. With `O=C(O)C1CCCCN1CCC=C(c1sccc1COc1ccccc1)c1sccc1COc1ccccc1` (stereo not given), the IC50 came to 650 nM.
